PubChem BioAssay AID328 (DTP/NCI, 2004)
Where “and” joins values, the source holds several entries; their conditions need not be identical. Equal entries are not always repeated. Inconclusive results and toxic doses are left out.

System: BDF1 mice, P388 leukemia ip, median survival T/C
Assay: NCI In Vivo Anticancer Drug Screen. Data for tumor model P388 Leukemia (intraperitoneal) in B6D2F1 (BDF1) mice
Details: endpoint: median survival time, higher = longer survival
Method in brief: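 Survival ratio, drug arm over vehicle arm, in mice with a transplanted tumour.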

[1] = dose: 200.0 mg/kg/injection, schedule: Q04DX003 (ip), vehicle: saline with Tween-80
[2] = dose: 400.0 mg/kg/injection, schedule: Q04DX003 (ip), vehicle: saline with Tween-80
[3] = dose: 100.0 mg/kg/injection, schedule: Q01DX009 (ip), vehicle: saline with Tween-80
[4] = dose: 100.0 mg/kg/injection, schedule: Q04DX003 (ip), vehicle: saline
[5] = dose: 200.0 mg/kg/injection, schedule: Q01DX009 (ip), vehicle: saline with Tween-80
[6] = dose: 200.0 mg/kg/injection, schedule: Q04DX003 (ip), vehicle: saline
[7] = dose: 50.0 mg/kg/injection, schedule: Q01DX009 (ip), vehicle: saline with Tween-80

`Cc1c2oc3c(C)ccc(C(=O)NCCc4ccccn4)c3nc-2c(C(=O)NCCc2ccccn2)c(N)c1=O` was tested, and the T/C (dose: 100.0 mg/kg/injection, schedule: Q04DX002 (ip), vehicle: saline with Tween-80) was 101 % of control, the T/C (dose: 200.0 mg/kg/injection, schedule: Q04DX002 (ip), vehicle: saline with Tween-80) was 92 % of control and the T/C (dose: 400.0 mg/kg/injection, schedule: Q04DX002 (ip), vehicle: saline with Tween-80) was 97 % of control.
With `O=C1c2ccccc2C(=O)c2c(NCCSCCO)ccc(NCCSCCO)c21` the T/C (dose: 25.0 mg/kg/injection, schedule: Q01DX009 (ip), vehicle: other) was 95 % of control, the T/C (dose: 50.0 mg/kg/injection, schedule: Q01DX009 (ip), vehicle: other) was 86 % of control and the T/C (dose: 100.0 mg/kg/injection, schedule: Q01DX009 (ip), vehicle: other) was 94 % of control.
For `CCSCCCCSCC`, the T/C (dose: 100.0 mg/kg/injection, schedule: Q04DX003 (ip), vehicle: saline with Tween-80) was 104 % of control, the T/C [1] was 104 % of control and the T/C [2] was 100 % of control.
For `Nc1nc2c(c(=O)[nH]1)N(C=O)C(CNc1ccc(C(=O)N[C@@H](CCC(=O)O)C(=O)O)cc1)CN2` (some centres not stated), the T/C [3] was 95 % of control, the T/C [4] was 104 % of control and the T/C [5] was 95 % of control. For the same compound, the T/C [6] was 104 % of control, the T/C (dose: 400.0 mg/kg/injection, schedule: Q01DX009 (ip), vehicle: saline with Tween-80) was 95 % of control and the T/C (dose: 400.0 mg/kg/injection, schedule: Q04DX003 (ip), vehicle: saline) was 100 % of control.
In the case of `N#CSCc1nc2ccc(Cl)cc2c(-c2ccccc2)[n+]1[O-]`, the T/C [7] is reported as 100 % of control, the T/C [3] is reported as 114 % of control and the T/C [5] is reported as 114 % of control.
For `CCCCCCCCCCCCCC(=O)O[C@@H]1[C@@H](C)[C@@]2(O)[C@@H](C=C(CO)C[C@]3(O)C(=O)C(C)=C[C@@H]23)[C@@H]2C(C)(C)[C@]12OC(C)=O`, the T/C (dose: 0.03 mg/kg/injection, schedule: Q01DX009 (ip), vehicle: Klucel (hydroxypropylcellulose) (HPC)) was 110 % of control, the T/C (dose: 0.03 mg/kg/injection, schedule: Q01DX009 (ip), vehicle: saline + alcohol) was 108 % of control and the T/C (dose: 0.06 mg/kg/injection, schedule: Q01DX009 (ip), vehicle: Klucel (hydroxypropylcellulose) (HPC)) was 100 % of control. For the same compound, the T/C (dose: 0.06 mg/kg/injection, schedule: Q01DX009 (ip), vehicle: saline + alcohol) was 110 % of control, the T/C (dose: 0.12 mg/kg/injection, schedule: Q01DX009 (ip), vehicle: Klucel (hydroxypropylcellulose) (HPC)) was 110 % of control and the T/C (dose: 0.12 mg/kg/injection, schedule: Q01DX009 (ip), vehicle: saline + alcohol) was 117 % of control. For the same compound, the T/C (dose: 0.25 mg/kg/injection, schedule: Q01DX009 (ip), vehicle: Klucel (hydroxypropylcellulose) (HPC)) was 92 % of control, the T/C (dose: 0.25 mg/kg/injection, schedule: Q01DX009 (ip), vehicle: saline + alcohol) was 116 % of control and the T/C (dose: 0.5 mg/kg/injection, schedule: Q01DX009 (ip), vehicle: Klucel (hydroxypropylcellulose) (HPC)) was 100 % of control. The T/C (dose: 0.5 mg/kg/injection, schedule: Q01DX009 (ip), vehicle: saline + alcohol) was 104 % of control, the T/C (dose: 1.0 mg/kg/injection, schedule: Q01DX009 (ip), vehicle: Klucel (hydroxypropylcellulose) (HPC)) was 108 % of control and the T/C (dose: 3.1 micrograms/kg/injection, schedule: Q01DX009 (ip), vehicle: gum acacia) was 97 % of control and 108 % of control. The T/C (dose: 3.1 micrograms/kg/injection, schedule: Q01DX009 (ip), vehicle: saline with Tween-80) was 105 % of control, the T/C (dose: 6.2 micrograms/kg/injection, schedule: Q01DX009 (ip), vehicle: gum acacia) was 94 % of control and the T/C (dose: 6.2 micrograms/kg/injection, schedule: Q01DX009 (ip), vehicle: saline with Tween-80) was 109 % of control. The T/C (dose: 12.5 micrograms/kg/injection, schedule: Q01DX009 (ip), vehicle: gum acacia) was 106 % of control, the T/C (dose: 12.5 micrograms/kg/injection, schedule: Q01DX009 (ip), vehicle: saline with Tween-80) was 104 % of control and the T/C (dose: 25.0 micrograms/kg/injection, schedule: Q01DX009 (ip), vehicle: gum acacia) was 103 % of control and 118 % of control. For the same compound, the T/C (dose: 25.0 micrograms/kg/injection, schedule: Q01DX009 (ip), vehicle: saline with Tween-80) was 109 % of control, the T/C (dose: 50.0 micrograms/kg/injection, schedule: Q01DX009 (ip), vehicle: gum acacia) was 97 % of control and 108 % of control and 116 % of control and the T/C (dose: 50.0 micrograms/kg/injection, schedule: Q01DX009 (ip), vehicle: saline with Tween-80) was 114 % of control. For the same compound, the T/C (dose: 100.0 micrograms/kg/injection, schedule: Q01DX009 (ip), vehicle: gum acacia) was 106 % of control and 108 % of control, the T/C (dose: 100.0 micrograms/kg/injection, schedule: Q01DX009 (ip), vehicle: saline with Tween-80) was 113 % of control and the T/C (dose: 200.0 micrograms/kg/injection, schedule: Q01DX009 (ip), vehicle: gum acacia) was 101 % of control and 103 % of control and 113 % of control. The T/C (dose: 200.0 micrograms/kg/injection, schedule: Q01DX009 (ip), vehicle: saline with Tween-80) was 97 % of control, the T/C (dose: 400.0 micrograms/kg/injection, schedule: Q01DX009 (ip), vehicle: gum acacia) was 103 % of control and the T/C (dose: 400.0 micrograms/kg/injection, schedule: Q01DX009 (ip), vehicle: saline with Tween-80) was 103 % of control. For the same compound, the T/C (dose: 800.0 micrograms/kg/injection, schedule: Q01DX009 (ip), vehicle: gum acacia) was 100 % of control and 106 % of control.
For `C[C@]12CC[C@H](O)CC1=CC[C@@H]1[C@@H]2CC[C@]2(C)c3nc4ccccc4cc3C[C@@H]12`, the T/C [1] was 95 % of control.
In the case of `N#Cc1ccccc1[N+](=O)[O-]`, the T/C (dose: 4.0 mg/kg/injection, schedule: Q01DX010 (ip), vehicle: carboxymethylcellulose (CMC)) is reported as 100 % of control and the T/C (dose: 16.0 mg/kg/injection, schedule: Q01DX010 (ip), vehicle: carboxymethylcellulose (CMC)) is reported as 100 % of control.
With `COc1ccc(Nc2ccnc3cc(Cl)ccc23)cc1CN(CCCl)CCCl` the T/C (dose: 0.11 mg/kg/injection, schedule: Q01DX009 (ip), vehicle: saline) was 100 % of control, the T/C (dose: 0.13 mg/kg/injection, schedule: Q01DX009 (ip), vehicle: saline) was 89 % of control and the T/C (dose: 0.2 mg/kg/injection, schedule: Q01DX009 (ip), vehicle: saline) was 180 % of control. The T/C (dose: 0.22 mg/kg/injection, schedule: Q01DX009 (ip), vehicle: saline) was 117 % of control, the T/C (dose: 0.22 mg/kg/injection, schedule: Q04DX003 (ip), vehicle: saline) was 113 % of control and the T/C (dose: 0.33 mg/kg/injection, schedule: Q04DX003 (ip), vehicle: saline) was 104 % of control. For the same compound, the T/C (dose: 0.44 mg/kg/injection, schedule: Q01DX009 (ip), vehicle: saline) was 166 % of control, the T/C (dose: 0.5 mg/kg/injection, schedule: Q04DX003 (ip), vehicle: saline) was 122 % of control and the T/C (dose: 0.66 mg/kg/injection, schedule: Q01DX009 (ip), vehicle: saline) was 163 % of control. The T/C (dose: 1.0 mg/kg/injection, schedule: Q01DX009 (ip), vehicle: saline) was 163 % of control, the T/C (dose: 1.25 mg/kg/injection, schedule: Q01DX009 (ip), vehicle: Klucel (hydroxypropylcellulose) (HPC)) was 155 % of control and the T/C (dose: 1.5 mg/kg/injection, schedule: Q01DX009 (ip), vehicle: saline) was 176 % of control. The T/C (dose: 2.5 mg/kg/injection, schedule: Q01DX009 (ip), vehicle: Klucel (hydroxypropylcellulose) (HPC)) was 155 % of control, the T/C (dose: 3.13 mg/kg/injection, schedule: Q04DX003 (ip), vehicle: saline) was 154 % of control and the T/C (dose: 4.0 mg/kg/injection, schedule: Q01DX009 (ip), vehicle: saline) was 86 % of control. The T/C (dose: 25.0 mg/kg/injection, schedule: Q04DX003 (ip), vehicle: saline sonified) was 88 % of control.
With `CCOc1ccc(NC(=O)OCCN2CCN(CCc3ccccc3)C(C)C2)cc1` (configuration not stated) the T/C [7] was 94 % of control and the T/C [3] was 98 % of control.
With `Oc1ccc(/C=N/NC(=S)Nc2ccccc2)nc1` the T/C (dose: 400.0 mg/kg/injection, schedule: Q04DX003 (ip), vehicle: Klucel (hydroxypropylcellulose) (HPC)) was 150 % of control.
`O=C(Nc1ccc(S(=O)(=O)O)cc1)c1ccc([N+](=O)[O-])cc1` was tested, and the T/C (dose: 25.0 mg/kg/injection, schedule: Q01DX009 (ip), vehicle: saline) was 100 % of control, the T/C (dose: 50.0 mg/kg/injection, schedule: Q01DX009 (ip), vehicle: saline) was 100 % of control and the T/C (dose: 100.0 mg/kg/injection, schedule: Q01DX009 (ip), vehicle: saline) was 100 % of control. The T/C [4] was 100 % of control, the T/C (dose: 176.0 mg/kg/injection, schedule: Q04DX003 (ip), vehicle: saline with Tween-80) was 100 % of control and the T/C [6] was 100 % of control. The T/C (dose: 264.0 mg/kg/injection, schedule: Q04DX003 (ip), vehicle: saline with Tween-80) was 110 % of control, the T/C (dose: 264.0 mg/kg/injection, schedule: Q04DX003 (ip), vehicle: saline) was 95 % of control and 120 % of control and the T/C [2] was 100 % of control.
For `Cc1c(O)c2c(c(O)c1Cc1ccc(CN)cc1)C(=O)c1ccccc1C2=O`, the T/C (dose: 12.5 mg/kg/injection, schedule: Q01DX009 (ip), vehicle: water) was 90 % of control and the T/C (dose: 25.0 mg/kg/injection, schedule: Q01DX009 (ip), vehicle: water) was 114 % of control.
With `COC(=O)CCC(C)C1CCC2C3CCC4CC(SC(=N)N)CCC4(C)C3CC(O)C12C` (configuration not stated) the T/C [7] was 91 % of control, the T/C [3] was 89 % of control and the T/C [5] was 89 % of control.
